# According to patent US9512180B2, “Compstatin analogs” (THE REGENTS OF THE UNIVERSITY OF CALIFORNIA, priority 2012, dated 2016):
# Marks after values point to notes of the source that are not given here. Bridge positions count the residues as written; N and C are the ends. Square brackets hold non-standard residues; d marks the D form. Peptide text beside a SMILES is read from it. Trp(1-Me) = Cn1cc(C[C@H](N)C(=O)O)c2ccccc21
# Columns and labels:
# [1] = RP-HPLC relative lipophilicity (retention factor k, log k); type: physicochemical
# Procedure: The effect of the hydrophobic content of compstatin family peptides on relative lipophilicity was evaluated using RP-HPLC, a widely applied indirect technique for the determination of the lipophilicity of drugs and drug candidates. The determination of log P by RP-HPLC is based on the measurement of the retention factor k between the mobile and stationary phase (Eq. 7) of the investigated compound:
# [formula] where tR is the retention time of the analyte, and to is the elution time of an unretained analyte. The logarithm of the retention factor is linearly correlated with the logarithm of the partition coefficient log P=a log k+b (8). where a and b are the slope and intercept of the linear equation.
# The determination of log P values requires calibration using structurally related compounds, and is beyond the scope of this study. Instead the log k values were used to indicate the relative lipophilicities of this compstatin peptide family.
# HPLC experiments were carried out using an Agilent 1100 HPLC with UV detection at 280 nm at 25° C. Separations were performed on a Waters (Milford, Mass.) 4.6×150 mm XTerra MS C18 column with 5 μm pore size using a mobile phase of A: 10 mM phosphate buffer pH=7.4 containing 1% TFA, and B: acetonitrile. The purity of the peptides was verified by an isocratic separation at 28% B and a flow rate of 1 mL/min. Solutions containing 0.6-0.8 mg/mL of Peptides I, III, VI, IX and the parent peptide were prepared in methanol and diluted 5-times with the eluent. All five peptides eluted as single peaks indicating a high degree of purity (FIG. 10).
# For the determination of the relative lipophilicities a solution containing each of the peptides was prepared from the stock solutions and injected in triplicate. […] A 0.5 mg/mL solution of aspartic acid was used as the unretained analyte for the determination of the column dead time, 1.439±0.003 min.
# RP-HPLC was used to measure the hydrophobicity/lipophilicity content of the compstatin family peptides. The retention of a compound in RP-HPLC depends on its hydrophobicity/lipophilicity content, and is correlated to the octanol-water partition ratio. Lipophilicity describes the partitioning of a compound between an aqueous and a lipidic/hydrophobic environment, and is an essential physicochemical parameter to determine pharmacokinetic behavior according to ADME (absorption, distribution, metabolism, excretion) characterization. Because the compstatin family peptides consist of a hydrophobic and a polar surface, their ability to bind to the hydrophobic cavity of C3, while maintaining a solvent-exposed face has been evaluated here as lipohilicity content, measured by RP-HPLC. In addition, lipohilicity is inversely proportional to aqueous solubility, and therefore can be used to estimate solubility of the peptides in their free (unbound) state.
# [2] = Aqueous solubility by concentration measurement (absorbance at 280 nm) of saturated peptide solutions; type: physicochemical
# Procedure: The relative lipophilicities of Peptides I, III, VI, IX, and Parent are inversely consistent with solubilities as determined via concentration measurement (absorbance at 280 nm) of saturated peptide solutions, with Peptides I, III, and Parent having approximate aqueous solubilities of >1 mM, Peptide VI>500 μM, and Peptide IX<500 μM.
# soluble C5b-9 = experiment: Soluble C5b-9 ELISA of the RPE cell-based assay medium; set-up: species or system human; details: peptide 1 μM; for soluble C5b-9 in assay medium relative to positive control: 10% human complement serum, ~24 hrs, mean±S.E.M., three donors; for Assay medium C5b-9 ELISA % of positive control: RPE cell assay medium, Mean (S.E.M.)
# Procedure: The in vitro drusen biogenesis model was employed. Human fetal RPE cells (Advanced Bioscience Resources, Alameda, Calif.) were cultured on Millipore HA porous supports (Millipore, Cat # PIHA 01250) in Miller medium (Maminishkis et al., 2006) supplemented with 5% fetal calf serum (FCS). Cultures derived from three different donor eyes were employed. Cells were rinsed with warm, sterile PBS and the insert membrane was excised with a scalpel and cut into small (˜4 mm^2) pieces which were placed in wells of a 96-well plate. To minimize effects of inter-culture variability, samples prepared from a single membrane were utilized for each experiment. The samples were rinsed in PBS and then exposed individually to the library of compstatin family peptides at 1 μM in FCS-free Miller medium containing 10% human complement serum (Innovative Research, Cat # IPLA-CSER AB, Lot # L12402). In preliminary experiments, compstatin family Peptides I, III, VI, VII, VIII, IX, and Parent (Table 7), were tested in the RPE cell assay at 100 μM and titrated by C5b-9 ELISA over a concentration range of 0.04-130 μM. […] Also from this assessment, Peptide VI, as well as Peptides I and III, were selected for further studies. Peptides I and III were chosen for comparative studies to Peptide VI, because they contain an arginine residue at position 1. The goal was to determine whether peptides containing arginine at position −1 (Peptide VI) or at position 1 (Peptides I and III) were potent complement inhibitors using the RPE cell assay and had improved aqueous solubility compared to previously known potent analogs. Negative control cells were exposed to Miller medium+5% FCS; positive control cells were exposed to Miller medium+10% human complement serum without inhibitory peptides. Experimental and control medium/inhibitor solutions were pre-mixed on a rocker at room temperature for 30 min, then warmed to 37° C., prior to placement on the samples and incubation for ˜24 hrs at 37° C. in a 7.0% CO2 incubator. Following the incubation period, the medium was removed and stored frozen prior to ELISA analysis. The cell/membrane samples were rinsed in PBS, fixed in cold 4% paraformaldehyde (PFA) in PBS for 20 min, and stored in 0.4% PFA until use in immunohistochemical assays.
# Soluble C5b-9 ELISA of the RPE Cell-Based Assay Medium.
# Experimental medium solutions were diluted 1/625 in assay diluent and quadruplicate ELISAs were performed using an OptEIA C5b-9 ELISA kit (BD Biosciences, Cat #558315). Plates were read at 450 nm, with absorbance at 570 nm subtracted for wavelength correction, on a BioRad Benchmark plate reader. C5b-9 concentrations were calculated using a standard curve generated using purified human C5b-9. Data was expressed as a percentage relative to the positive (human serum only) control. Means and standard errors for data from the three RPE donor cells were calculated and graphed using SigmaPlot 11.0 (Systat Software, San Jose, Calif.), and one-way ANOVA was calculated using Tukey's test for multiple comparisons.
Structure (SMILES),Retention factor (k) [1],logk [1],solubility [2] [µM],soluble C5b-9 in assay medium relative to positive control (soluble C5b-9) [%],Assay medium C5b-9 ELISA % of positive control (soluble C5b-9),"relative lipophilicity ([1]; isocratic 24% acetonitrile, pH=7.4 phosphate buffer)"
"CC(=O)N[C@@H](CCCNC(=N)N)C(=O)N[C@H]1CSSC[C@@H](C(=O)N[C@H](C(N)=O)[C@@H](C)O)NC(=O)[C@H](CCCNC(=N)N)NC(=O)[C@H](Cc2c[nH]cn2)NC(=O)[C@H](C)NC(=O)CNC(=O)[C@H](Cc2c[nH]c3ccccc23)NC(=O)[C@H](CC(=O)O)NC(=O)[C@H](CCC(N)=O)NC(=O)[C@H](Cc2c[nH]c3ccccc23)NC(=O)[C@H](C(C)C)NC1=O [Peptide I, Ac- RCV WQDWGA HRCT-NH2] (Ac-RCVWQDWGAHRCT-NH2; disulfide 2-12)",2.828,0.451,> 1000,61.4±2.3,61.37 (2.34)^a % of positive control,–
"CC[C@H](C)[C@H](NC(=O)[C@H](CO)NC(=O)[C@H](CCCNC(=N)N)NC(C)=O)C(=O)N[C@H]1CSSC[C@@H](C(=O)N[C@H](C(N)=O)[C@@H](C)O)NC(=O)[C@H](CCCNC(=N)N)NC(=O)[C@H](Cc2c[nH]cn2)NC(=O)[C@H](C)NC(=O)CNC(=O)[C@H](Cc2c[nH]c3ccccc23)NC(=O)[C@H](CC(=O)O)NC(=O)[C@H](CCC(N)=O)NC(=O)[C@H](Cc2cn(C)c3ccccc23)NC(=O)[C@H](C(C)C)NC1=O [Peptide VI, Ac-RS-ICV meWQDWGA HRCT-NH2]",9.913,0.996,> 500,44.6±3.2,44.60 (3.16) % of positive control,–
"CC(=O)N[C@@H](CCCNC(=N)N)C(=O)N[C@H]1CSSC[C@@H](C(=O)N[C@H](C(N)=O)[C@@H](C)O)NC(=O)[C@H](CCCNC(=N)N)NC(=O)[C@H](Cc2c[nH]cn2)NC(=O)[C@H](C)NC(=O)CNC(=O)[C@H](Cc2c[nH]c3ccccc23)NC(=O)[C@H](CC(=O)O)NC(=O)[C@H](CCC(N)=O)NC(=O)[C@H](Cc2cn(C)c3ccccc23)NC(=O)[C@H](C(C)C)NC1=O [Peptide III, Ac- RCV meWQDWGA HRCT-NH2] (Ac-RCV[Trp(1-Me)]QDWGAHRCT-NH2; disulfide 2-12)",6.165,0.790,> 1000,50.0±0.8,50.02 (0.82) % of positive control,–
"CC[C@H](C)[C@H](N)C(=O)N[C@H]1CSSC[C@@H](C(=O)N[C@H](C(N)=O)[C@@H](C)O)NC(=O)[C@H](CCCN=C(N)N)NC(=O)[C@H](Cc2cnc[nH]2)NC(=O)[C@H](Cc2cnc[nH]2)NC(=O)CNC(=O)[C@H](Cc2c[nH]c3ccccc23)NC(=O)[C@H](CC(=O)O)NC(=O)[C@H](CCC(N)=O)NC(=O)[C@H](C(C)C)NC(=O)[C@H](C(C)C)NC1=O [Parent, ICV VQDWGH HRCT-NH2, reference compound]",2.472,0.393,–,88.5±0.76,88.49 (0.76) % of positive control,least lipophilic
